# Where two headings read alike, the source gives them in different places.
# Tests used:
# Type in all cases: in vivo
# [1] = system: barnyardgrass (Echinochloa crus-galli); assay: Test B pre-/postemergence plant response; details: Echinochloa crus-galli, 240 h, read-out: Plant response rating, Barnyardgrass; for pest or weed control at 125 g/ha: 125 g ai/ha; for pest or weed control at 500 g/ha: 500 g ai/ha
# Method in brief: (§1)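 Steps: plant seeds in loam soil–sand mix; spray soil preemergence, and in parallel spray 2–10 cm one- to two-leaf plants postemergence; hold ~10 days in greenhouse; visually rate injury against untreated controls (0 = no effect, 100 = complete control).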
# [2] = system: wheat (Triticum aestivum); assay: Test B pre-/postemergence plant response; details: Triticum aestivum, 240 h, read-out: Plant response rating, Wheat; for plant injury at 125 g/ha: 125 g ai/ha; for plant injury at 500 g/ha: 500 g ai/ha
# Method in brief: as §1
# [3] = system: pigweed (Amaranthus retroflexus); assay: Test B pre-/postemergence plant response; details: Amaranthus retroflexus, 240 h, read-out: Plant response rating, Pigweed; for pest or weed control at 125 g/ha: 125 g ai/ha; for pest or weed control at 500 g/ha: 500 g ai/ha
# Method in brief: as §1
# corn (Zea mays) [4] = assay: Test B pre-/postemergence plant response; details: Zea mays, 240 h; for Corn plant response rating (crop injury, 0 = no effect, 100 = complete kill) at 125 g/ha: 125 g ai/ha; for Corn plant response rating (crop injury, 0 = no effect, 100 = complete kill) at 500 g/ha: 500 g ai/ha
# Method in brief: as §1
# [5] = system: giant foxtail (Setaria faberii); assay: Test B pre-/postemergence plant response; details: Setaria faberi, 240 h, read-out: Plant response rating, Foxtail, Giant; for pest or weed control at 125 g/ha: 125 g ai/ha; for pest or weed control at 500 g/ha: 500 g ai/ha
# Method in brief: as §1
# [6] = system: galium (catchweed bedstraw, Galium aparine); assay: Test D pre-/postemergence plant response; details: Galium, pre-emergence, Preemergence, scale 0 to 100 (0 no effect, 100 complete control), read-out: Plant response rating, Galium
# Excerpt: (§2) Seeds of plant species selected from blackgrass (Alopecurus myosuroides), Italian ryegrass (Lolium multiflorum), winter wheat (Triticum aestivum), galium (catchweed bedstraw, Galium aparine), corn (Zea mays), large (Lg) crabgrass (Digitaria sanguinalis), giant foxtail (Setaria faberii), johnsongrass (Sorghum halepense), lambsquarters (Chenopodium album), morningglory (Ipomoea coccinea), yellow nutsedge (Cyperus esculentus), pigweed (Amaranthus retroflexus), ragweed (common ragweed, Ambrosia elatior), soybean (Glycine max), bamyardgrass (Echinochloa crus-galli), oilseed rape (Brassica napus), waterhemp (common waterhemp, Amaranthus rudis), and velvetleaf (Abutilon theophrasti) were planted into a blend of loam soil and sand and treated preemergence with test chemicals formulated in a non-phytotoxic solvent mixture which included a surfactant. At the same time, plants selected from these crop and weed species and also kochia (Kochia scoparia), wild oat (Avena fatua), and chickweed (common chickweed, Stellaria media) were planted in pots containing Redi-Earth® planting medium (Scotts Company, 14111 Scottslawn Road, Marysville, Ohio 43041) comprising spaghnum peat moss, vermiculite, wetting agent and starter nutrients and treated with postemergence applications of test chemicals formulated in the same manner. Plants ranged in height from 2 to 18 cm (1- to 4-leaf stage) for postemergence treatments. Treated plants and controls were maintained in a greenhouse for 13 to 15 days, after which time all species were compared to controls and visually evaluated. Plant response ratings, summarized in Table D, are based on a scale of 0 to 100 where 0 is no effect and 100 is complete control. A dash (-) response means no test result.
# [7] = system: large (Lg) crabgrass (Digitaria sanguinalis); assay: Test D pre-/postemergence plant response; details: Digitaria sanguinalis, pre-emergence, Preemergence, scale 0 to 100 (0 no effect, 100 complete control), read-out: Plant response rating, Crabgrass, Large
# Excerpt: as §2
# [8] = system: yellow nutsedge (Cyperus esculentus); assay: Test D pre-/postemergence plant response; details: Cyperus, pre-emergence, Preemergence, scale 0 to 100 (0 no effect, 100 complete control), read-out: Plant response rating, Nutsedge, Yellow
# Excerpt: as §2
# [9] = system: Italian ryegrass (Lolium multiflorum); assay: Test D pre-/postemergence plant response; details: Lolium multiflorum, pre-emergence, Preemergence, scale 0 to 100 (0 no effect, 100 complete control), read-out: Plant response rating, Ryegrass, Italian
# Excerpt: as §2
# [10] = system: waterhemp (common waterhemp, Amaranthus rudis); assay: Test D pre-/postemergence plant response; details: Amaranthus tuberculatus, pre-emergence, Preemergence, scale 0 to 100 (0 no effect, 100 complete control), read-out: Plant response rating, Waterhemp
# Excerpt: as §2
# soybean (Glycine max) = assay: Test D pre-/postemergence plant response; details: Glycine max, pre-emergence, Preemergence, scale 0 to 100 (0 no effect, 100 complete control), read-out: Plant response rating, Soybean
# Excerpt: as §2
# corn (Zea mays) [11] = assay: Test D pre-/postemergence plant response; details: Zea mays, pre-emergence, Preemergence, scale 0 to 100 (0 no effect, 100 complete control)
# Excerpt: as §2
# [12] = system: ragweed (common ragweed, Ambrosia elatior); assay: Test D pre-/postemergence plant response; details: Ambrosia artemisiifolia, pre-emergence, Preemergence, scale 0 to 100 (0 no effect, 100 complete control), read-out: Plant response rating, Ragweed
# Excerpt: as §2
# [13] = system: lambsquarters (Chenopodium album); assay: Test D pre-/postemergence plant response; details: Chenopodium album, pre-emergence, Preemergence, scale 0 to 100 (0 no effect, 100 complete control), read-out: Plant response rating, Lambsquarters
# Excerpt: as §2
# [14] = system: winter wheat (Triticum aestivum); assay: Test D pre-/postemergence plant response; details: Triticum aestivum, pre-emergence, Preemergence, scale 0 to 100 (0 no effect, 100 complete control), read-out: Plant response rating, Wheat
# Excerpt: as §2
# [15] = system: morningglory (Ipomoea coccinea); assay: Test D pre-/postemergence plant response; details: Ipomoea, pre-emergence, Preemergence, scale 0 to 100 (0 no effect, 100 complete control), read-out: Plant response rating, Morningglory
# Excerpt: as §2
# [16] = post-emergence, postemergence, 0 to 100 scale, 0 no effect, 100 complete control
# [17] = post-emergence, Postemergence, 0 to 100 scale (0 no effect, 100 complete control)
# [18] = pre-emergence, Preemergence, 0 to 100 scale where 0 is no effect and 100 is complete control
structure (smiles),measurement,setting,value
"FCc1cc(-c2ccccc2Oc2ncc(Cl)cn2)no1 [Compound 32, 5-chloro-2-[2-[5-(fluoromethyl)-3-isoxazolyl]phenoxy]pyrimidine]",pest or weed control at 125 g/ha,[1]; [16],70%
same,pest or weed control at 500 g/ha,[1]; [17],90%
same,pest or weed control at 125 g/ha,[1]; [18],90%
same,pest or weed control at 500 g/ha,[1]; [18],90%
same,plant injury at 125 g/ha,[2]; [16],30%
same,plant injury at 500 g/ha,[2]; [17],60%
same,plant injury at 125 g/ha,[2]; [18],0%
same,plant injury at 500 g/ha,[2]; [18],10%
same,pest or weed control at 125 g/ha,[3]; [16],100%
same,pest or weed control at 500 g/ha,[3]; [17],100%
same,pest or weed control at 125 g/ha,[3]; [18],100%
same,pest or weed control at 500 g/ha,[3]; [18],100%
same,"Corn plant response rating (crop injury, 0 = no effect, 100 = complete kill) at 125 g/ha",corn (Zea mays) [4]; [16],10%
same,"Corn plant response rating (crop injury, 0 = no effect, 100 = complete kill) at 500 g/ha",corn (Zea mays) [4]; [17],50%
same,"Corn plant response rating (crop injury, 0 = no effect, 100 = complete kill) at 125 g/ha",corn (Zea mays) [4]; [18],0%
same,"Corn plant response rating (crop injury, 0 = no effect, 100 = complete kill) at 500 g/ha",corn (Zea mays) [4]; [18],0%
same,pest or weed control at 125 g/ha,[5]; [16],70%
same,pest or weed control at 500 g/ha,[5]; [17],90%
same,pest or weed control at 125 g/ha,[5]; [18],90%
same,pest or weed control at 500 g/ha,[5]; [18],100%
same,pest or weed control at 8 g/ha,[6]; 8 g ai/ha,0%
same,pest or weed control at 16 g/ha,[6]; 16 g ai/ha,25%
same,pest or weed control at 31 g/ha,[6]; 31 g ai/ha,65%
same,pest or weed control at 62 g/ha,[6]; 62 g ai/ha,75%
same,pest or weed control at 8 g/ha,[7]; 8 g ai/ha,100%
same,pest or weed control at 16 g/ha,[7]; 16 g ai/ha,90%
same,pest or weed control at 31 g/ha,[7]; 31 g ai/ha,98%
same,pest or weed control at 62 g/ha,[7]; 62 g ai/ha,100%
same,pest or weed control at 8 g/ha,[8]; 8 g ai/ha,60%
same,pest or weed control at 16 g/ha,[8]; 16 g ai/ha,65%
same,pest or weed control at 31 g/ha,[8]; 31 g ai/ha,0%
same,pest or weed control at 62 g/ha,[8]; 62 g ai/ha,25%
same,pest or weed control at 8 g/ha,[9]; 8 g ai/ha,0%
same,pest or weed control at 16 g/ha,[9]; 16 g ai/ha,0%
same,pest or weed control at 31 g/ha,[9]; 31 g ai/ha,0%
same,pest or weed control at 62 g/ha,[9]; 62 g ai/ha,10%
same,pest or weed control at 8 g/ha,[10]; 8 g ai/ha,100%
same,pest or weed control at 16 g/ha,[10]; 16 g ai/ha,100%
same,pest or weed control at 31 g/ha,[10]; 31 g ai/ha,100%
same,pest or weed control at 62 g/ha,[10]; 62 g ai/ha,98%
same,plant injury at 8 g/ha,soybean (Glycine max); 8 g ai/ha,10%
same,plant injury at 16 g/ha,soybean (Glycine max); 16 g ai/ha,15%
same,plant injury at 31 g/ha,soybean (Glycine max); 31 g ai/ha,25%
same,plant injury at 62 g/ha,soybean (Glycine max); 62 g ai/ha,65%
same,"Corn plant response rating (crop injury, 0 = no effect, 100 = complete kill) at 8 g/ha",corn (Zea mays) [11]; 8 g ai/ha,0%
same,"Corn plant response rating (crop injury, 0 = no effect, 100 = complete kill) at 16 g/ha",corn (Zea mays) [11]; 16 g ai/ha,0%
same,"Corn plant response rating (crop injury, 0 = no effect, 100 = complete kill) at 31 g/ha",corn (Zea mays) [11]; 31 g ai/ha,0%
same,"Corn plant response rating (crop injury, 0 = no effect, 100 = complete kill) at 62 g/ha",corn (Zea mays) [11]; 62 g ai/ha,0%
same,pest or weed control at 8 g/ha,[12]; 8 g ai/ha,75%
same,pest or weed control at 16 g/ha,[12]; 16 g ai/ha,60%
same,pest or weed control at 31 g/ha,[12]; 31 g ai/ha,75%
same,pest or weed control at 62 g/ha,[12]; 62 g ai/ha,70%
same,pest or weed control at 8 g/ha,[13]; 8 g ai/ha,95%
same,pest or weed control at 16 g/ha,[13]; 16 g ai/ha,95%
same,pest or weed control at 31 g/ha,[13]; 31 g ai/ha,98%
same,pest or weed control at 62 g/ha,[13]; 62 g ai/ha,100%
same,plant injury at 8 g/ha,[14]; 8 g ai/ha,0%
same,plant injury at 16 g/ha,[14]; 16 g ai/ha,0%
same,plant injury at 31 g/ha,[14]; 31 g ai/ha,0%
same,plant injury at 62 g/ha,[14]; 62 g ai/ha,5%
same,pest or weed control at 8 g/ha,[15]; 8 g ai/ha,0%
same,pest or weed control at 16 g/ha,[15]; 16 g ai/ha,0%
same,pest or weed control at 31 g/ha,[15]; 31 g ai/ha,5%
same,pest or weed control at 62 g/ha,[15]; 62 g ai/ha,0%
